Patent publication US20050256034A1, “Dioxolane analogs for improved inter-cellular delivery” (priority 2000, published 2005)

What was measured:
Assay type in all cases: cell-based
CEM cells (es, hENT1) = assay: Cellular uptake assay of 3H-labelled nucleoside; details: 30 μM, 6-min time course, compared with uridine
Method: (§1) FIG. 1 Comparative uptake of 30 μM [^3H]-troxacitabine in CEM (Panel A) and CEM/APAC8C (Panel B) cells. [^3H]-Uridine uptake in either the presence or absence of the hENT1 inhibitor, NBMPR or 5 mM non-radioactive uridine was included for comparison as a control substrate.
(§2) Cancer Res., 56: 4187-4191.
(§3) The transport of [^3H]uridine was inhibited in the presence either of the hENT1 inhibitor, NBMPR, or excess non-radioactive uridine.

CEM/ARAC8C cells = assay: Cellular uptake assay of 3H-labelled nucleoside; details: 30 μM, 6-min time course, compared with uridine
Method: as §1, §2, §3

recombinant hCNT1 = target: T1, recombinant hCNT1 (Homo sapiens, UniProt O00337); assay: Uptake by recombinant transporter in transiently transfected HeLa cells; details: 10 μM, 100 μM dilazep
T1 construct: expressed in transfected cells; host or cells: HeLa cells, transient transfection with pcDNA3-hCNT1 (subcloned from pMHK2)
T1 sequence (O00337 1-649): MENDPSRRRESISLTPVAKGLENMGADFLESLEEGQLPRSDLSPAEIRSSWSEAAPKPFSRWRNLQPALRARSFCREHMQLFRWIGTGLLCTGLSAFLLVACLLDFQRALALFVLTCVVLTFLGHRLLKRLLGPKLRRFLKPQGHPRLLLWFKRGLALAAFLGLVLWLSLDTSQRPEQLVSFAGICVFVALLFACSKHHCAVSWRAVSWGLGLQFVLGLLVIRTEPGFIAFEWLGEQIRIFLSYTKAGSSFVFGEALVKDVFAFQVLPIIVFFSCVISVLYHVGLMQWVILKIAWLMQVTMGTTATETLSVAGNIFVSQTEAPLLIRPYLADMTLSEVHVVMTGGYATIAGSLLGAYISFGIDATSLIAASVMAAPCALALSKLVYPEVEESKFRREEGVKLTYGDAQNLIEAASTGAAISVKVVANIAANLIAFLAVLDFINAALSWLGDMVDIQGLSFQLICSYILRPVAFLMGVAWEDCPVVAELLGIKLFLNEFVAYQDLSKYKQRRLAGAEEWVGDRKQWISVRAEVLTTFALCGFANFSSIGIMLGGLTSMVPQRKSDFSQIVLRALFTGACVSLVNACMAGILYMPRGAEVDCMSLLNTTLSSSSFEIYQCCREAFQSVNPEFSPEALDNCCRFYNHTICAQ
Method: (§4) Transport assays were conducted in the presence of the equilibrative transport inhibitor, 100 μM dilazep and either in the presence ( ? ) or absence (▴) of […].sodium, and compared to HeLa cells transiently transfected with the empty vector control plasmic (▾)
(§5) Expression plasmids encoding recombinant hCNT1 and hCNT2 are prepared using conventional methods. […] The expression vectors are separately introduced into actively proliferating HeLa cells, following conventional methods. See, e.g., Fang et al (1996).
(§6) Recombinant hCNT1 and hCNT2 were separately introduced into HeLa cells by transient transfection of pcDNA3 plasmids containing the coding sequences of the relevant nucleoside transporter protein. […] Uptake of 10 μM [:H]troxacitabine was not mediated either by hCNT1 or by hCNT2.

recombinant hCNT2 = target: T2, recombinant hCNT2 (Homo sapiens, UniProt O43868); assay: as above; details: 10 μM, 100 μM dilazep
T2 construct: expressed in transfected cells; host or cells: HeLa cells, transient transfection with pcDNA3-hCNT2 (subcloned from pMH15)
T2 sequence (O43868 1-658): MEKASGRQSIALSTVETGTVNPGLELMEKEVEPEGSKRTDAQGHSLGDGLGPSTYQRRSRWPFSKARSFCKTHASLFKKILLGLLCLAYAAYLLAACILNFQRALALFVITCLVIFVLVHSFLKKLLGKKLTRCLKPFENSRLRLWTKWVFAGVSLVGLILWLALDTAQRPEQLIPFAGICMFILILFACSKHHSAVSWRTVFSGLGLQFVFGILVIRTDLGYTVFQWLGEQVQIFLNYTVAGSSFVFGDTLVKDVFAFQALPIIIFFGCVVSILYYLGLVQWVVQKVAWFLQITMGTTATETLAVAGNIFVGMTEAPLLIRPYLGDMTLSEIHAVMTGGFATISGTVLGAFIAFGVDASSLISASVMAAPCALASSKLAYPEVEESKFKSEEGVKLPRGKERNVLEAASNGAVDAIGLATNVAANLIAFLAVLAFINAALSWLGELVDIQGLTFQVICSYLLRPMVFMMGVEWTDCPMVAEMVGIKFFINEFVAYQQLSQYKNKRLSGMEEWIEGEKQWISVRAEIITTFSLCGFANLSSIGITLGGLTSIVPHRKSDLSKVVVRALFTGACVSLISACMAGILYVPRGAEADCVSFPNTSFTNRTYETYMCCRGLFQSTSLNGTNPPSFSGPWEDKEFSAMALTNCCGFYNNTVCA
Method: as §4, §5, §6

hCNT3 = target: T3, hCNT3 (Homo sapiens, UniProt Q9HAS3); assay: Inhibition of [3H]uridine uptake by cib-activity in differentiated HL-60 cells; details: 100-fold non-radioactive excess
T3 construct: Troxacitabine uptake by cib-activity (hCNT3) in differentiated HL-60 cells; endogenous in cells; host or cells: differentiated HL-60 cells
T3 sequence (Q9HAS3 1-691): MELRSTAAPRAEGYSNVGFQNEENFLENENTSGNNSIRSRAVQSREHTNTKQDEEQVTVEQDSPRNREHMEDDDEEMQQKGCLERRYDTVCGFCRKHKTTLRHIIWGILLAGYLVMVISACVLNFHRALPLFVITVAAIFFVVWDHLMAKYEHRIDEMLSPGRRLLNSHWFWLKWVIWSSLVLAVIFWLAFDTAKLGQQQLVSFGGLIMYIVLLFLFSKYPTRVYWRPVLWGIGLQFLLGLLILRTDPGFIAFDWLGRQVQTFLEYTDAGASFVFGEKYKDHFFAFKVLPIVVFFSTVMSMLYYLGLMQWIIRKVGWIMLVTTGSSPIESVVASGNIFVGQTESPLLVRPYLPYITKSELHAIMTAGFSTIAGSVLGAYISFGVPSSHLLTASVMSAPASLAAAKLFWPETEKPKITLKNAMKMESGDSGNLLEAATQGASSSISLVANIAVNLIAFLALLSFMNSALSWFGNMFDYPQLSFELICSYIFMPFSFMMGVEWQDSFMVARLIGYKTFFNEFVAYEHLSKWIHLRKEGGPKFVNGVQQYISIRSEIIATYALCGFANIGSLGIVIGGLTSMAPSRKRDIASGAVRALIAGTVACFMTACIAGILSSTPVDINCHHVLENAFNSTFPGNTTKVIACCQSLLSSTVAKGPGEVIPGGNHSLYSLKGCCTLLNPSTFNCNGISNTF

Nc1ccn([C@@H]2CO[C@H](CO)O2)c(=O)n1 [Troxacitabine, troxacitabine] was tested, and the “uptake of 3H-labelled nucleoside” value (CEM cells (es, hENT1)) was “taken up to a lesser degree”, the “uptake of 3H-labelled nucleoside” value (CEM/ARAC8C cells) was “taken up to a lesser degree” and the “uptake mediated by hCNT1” value (recombinant hCNT1) was “not mediated”. For the same compound, the “uptake mediated by hCNT2” value (recombinant hCNT2) was “not mediated” and the “effect on [3H]uridine uptake by hCNT3” value (hCNT3) was “no effect on uridine uptake”.
